From patent publication US9382197B2, “Substituted hydroxamic acids and uses thereof” (Millennium Pharmaceuticals, Inc., priority 2010, dated 2016)
pIC50: −log10 of the molar value.

The compounds below were run against T1, purified human HDAC6 (Homo sapiens, UniProt Q9UBN7) (assay: HDAC6 Enzyme Assay). Conditions: bin: greater than 500 nM and less than 1 μM (lower bound in nM, upper bound in μM).
T1 construct: purchased BPS Bioscience 5006
T1 sequence (Q9UBN7 1-1215): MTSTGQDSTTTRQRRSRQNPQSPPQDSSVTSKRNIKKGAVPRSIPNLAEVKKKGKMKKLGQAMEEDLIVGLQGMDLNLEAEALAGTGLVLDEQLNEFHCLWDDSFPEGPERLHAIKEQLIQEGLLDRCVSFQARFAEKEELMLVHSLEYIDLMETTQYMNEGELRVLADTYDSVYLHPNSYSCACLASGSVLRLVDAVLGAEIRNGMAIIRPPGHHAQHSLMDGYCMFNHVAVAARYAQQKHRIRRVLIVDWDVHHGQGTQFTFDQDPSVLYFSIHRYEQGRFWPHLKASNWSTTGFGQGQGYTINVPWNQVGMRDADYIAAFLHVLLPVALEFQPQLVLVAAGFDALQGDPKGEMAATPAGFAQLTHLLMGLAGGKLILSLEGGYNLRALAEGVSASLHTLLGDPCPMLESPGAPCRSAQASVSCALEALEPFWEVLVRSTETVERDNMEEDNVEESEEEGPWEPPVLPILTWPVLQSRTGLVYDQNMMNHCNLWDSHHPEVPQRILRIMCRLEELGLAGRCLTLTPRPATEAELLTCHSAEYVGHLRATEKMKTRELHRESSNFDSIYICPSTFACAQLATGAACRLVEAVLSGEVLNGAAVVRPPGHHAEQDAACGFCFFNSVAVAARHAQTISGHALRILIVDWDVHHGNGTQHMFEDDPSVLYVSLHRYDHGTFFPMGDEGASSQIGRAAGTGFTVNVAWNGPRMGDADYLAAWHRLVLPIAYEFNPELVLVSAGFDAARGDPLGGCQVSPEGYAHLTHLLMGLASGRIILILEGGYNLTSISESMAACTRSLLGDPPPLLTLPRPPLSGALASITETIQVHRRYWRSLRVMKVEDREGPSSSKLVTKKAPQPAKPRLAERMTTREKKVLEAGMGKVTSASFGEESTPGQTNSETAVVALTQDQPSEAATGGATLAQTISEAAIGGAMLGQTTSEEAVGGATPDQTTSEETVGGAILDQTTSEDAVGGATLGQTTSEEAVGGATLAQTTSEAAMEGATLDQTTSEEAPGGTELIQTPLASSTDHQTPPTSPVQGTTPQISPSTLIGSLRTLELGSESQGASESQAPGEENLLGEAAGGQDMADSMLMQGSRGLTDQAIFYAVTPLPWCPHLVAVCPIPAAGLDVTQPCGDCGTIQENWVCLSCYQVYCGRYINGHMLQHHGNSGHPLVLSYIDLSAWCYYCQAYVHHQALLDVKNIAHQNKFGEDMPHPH
Format: biochemical
Outline: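 Deacetylated product quantified after trypsin digestion as released AMC (340/460 nm), following a 1 h, 30 °C reaction of human HDAC6 with Ac-RGK(Ac)-AMC peptide, quenched by trichostatin A. IC50 derived from DMSO-normalized curves.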

Row | IC50 | Structure (SMILES)
1 | 500 to 1000 nM | C[C@@H](NS(=O)(=O)c1ccc(C(F)(F)F)cc1)c1ccc(C(=O)NO)cc1 [Compound I-351, N-hydroxy-4-[(1R)-1-({[4-(trifluoromethyl)phenyl]sulfonyl}amino)ethyl]benzamide]
2 | 500 to 1000 nM | Cc1cc(C(=O)NC(c2ccc(C(=O)NO)cc2)C(C)(C)C)c(C)o1 (stereo not drawn) [Compound I-9, N-(1-{4-[(hydroxyamino)carbonyl]phenyl}-2,2-dimethylpropyl)-2,5-dimethyl-3-furamide]

Same assay, conditions: bin: greater than 1 μM

Row | pIC50 | Structure (SMILES)
3 | < 6.00 | CCC[C@@H](NS(=O)(=O)c1ccc(C(F)(F)F)cc1)c1ccc(C(=O)NO)cc1 [Compound I-171, N-hydroxy-4-[(1R)-1-({[4-(trifluoromethyl)phenyl]sulfonyl}amino)butyl]benzamide]
4 | < 6.00 | CC(NC(=O)CC12CC3CC(CC(C3)C1)C2)c1ccc(C(=O)NO)cc1 (stereo not drawn) [Compound I-212]

Same assay, conditions: purified human HDAC6, substrate Ac-Arg-Gly-Lys(Ac)-AMC, 1 hour at 30° C.; reported as bins

Row | Structure (SMILES) | pIC50
5 | Cc1nn(C)cc1C(=O)NC(c1ccc(C(=O)NO)cc1)C(C)(C)C (stereo not drawn) [Compound I-86, N-(1-{4-[(hydroxyamino)carbonyl]phenyl}-2,2-dimethylpropyl)-1,3-dimethyl-1H-pyrazole-4-carboxamide] | 6.30 to 7.00
6 | CC(C)[C@H](NC(=O)c1cc2ccccc2[nH]1)c1ccc(C(=O)NO)cc1 [Compound I-279, N-((1S)-1-{4-[(hydroxyamino)carbonyl]phenyl}-2-methylpropyl)-1H-indole-2-carboxamide] | 6.30 to 7.00
7 | CC(C)(C)C(NC(=O)c1ccc(-c2ccccc2)cc1)c1ccc(C(=O)NO)cc1 (stereo not drawn) [Compound I-355, N-(1-{4-[(hydroxyamino)carbonyl]phenyl}-2,2-dimethylpropyl)biphenyl-4-carboxamide] | 6.30 to 7.00
8 | Cc1ccc2[nH]c(C(=O)NC(C)c3cccc(C(=O)NO)c3)c(C)c2c1 (stereo not drawn) [Compound I-376, N-(1-{3-[(hydroxyamino)carbonyl]phenyl}ethyl)-3,5-dimethyl-1H-indole-2-carboxamide] | 6.30 to 7.00
9 | CC(C)C(NC(=O)c1ccc(C(C)(C)C)cc1)c1ccc(C(=O)NO)cc1 (stereo not drawn) [Compound I-192, 4-tert-butyl-N-(1-{4-[(hydroxyamino)carbonyl]phenyl}-2-methylpropyl)benzamide] | 6.30 to 7.00
10 | C[C@H](NC(=O)c1cc2ccccc2s1)c1cccc(C(=O)NO)c1 [Compound I-240, N-((1S)-1-{3-[(hydroxyamino)carbonyl]phenyl}ethyl)-1-benzothiophene-2-carboxamide] | 6.30 to 7.00
11 | CC(C)C(NC(=O)c1ccc2ncsc2c1)c1ccc(C(=O)NO)cc1 (stereo not drawn) [Compound I-43, N-(1-{4-[(hydroxyamino)carbonyl]phenyl}-2-methylpropyl)-1,3-benzothiazole-6-carboxamide] | 6.30 to 7.00
12 | CC(C)C(NC(=O)c1cccc2ccccc12)c1ccc(C(=O)NO)cc1 (stereo not drawn) [Compound I-331, N-(1-{4-[(hydroxyamino)carbonyl]phenyl}-2-methylpropyl)-1-naphthamide] | 6.30 to 7.00
13 | CC(C)(C)C(NC(=O)c1cnccn1)c1ccc(C(=O)NO)cc1 (stereo not drawn) [Compound I-87, N-(1-{4-[(hydroxyamino)carbonyl]phenyl}-2,2-dimethylpropyl)pyrazine-2-carboxamide] | 6.30 to 7.00

The next lines start with the values.

Row | pIC50 | Structure (SMILES)
14 | > 7.00 | CC(NC(=O)c1ccc(C(C)(C)C)cc1)c1ccc(C(=O)NO)cc1 (stereo not drawn) [Compound I-350, 4-tert-butyl-N-(1-{4-[(hydroxyamino)carbonyl]phenyl}ethyl)benzamide]
15 | 6.30 to 7.00 | CC(NC(=O)C1(c2ccccc2)CCCC1)c1ccc(C(=O)NO)cc1 (stereo not drawn) [Compound I-298, N-hydroxy-4-(1-{[(1-phenylcyclopentyl)carbonyl]amino}ethyl)benzamide]
16 | > 7.00 | CC(C)C(NC(=O)c1ccn(C)n1)c1ccc(C(=O)NO)cc1 (stereo not drawn) [Compound I-389, N-(1-{4-[(hydroxyamino)carbonyl]phenyl}-2-methylpropyl)-1-methyl-1H-pyrazole-3-carboxamide]
17 | > 7.00 | CC(NC(=O)Nc1cc(Cl)ccc1Cl)c1ccc(C(=O)NO)cc1 (stereo not drawn) [Compound I-89, 4-[1-({[(2,5-dichlorophenyl)amino]carbonyl}amino)ethyl]-N-hydroxybenzamide]
18 | > 7.00 | CC(NC(=O)Nc1ccc2c(c1)CCO2)c1ccc(C(=O)NO)cc1 (stereo not drawn) [Compound I-148, 4-(1-{[(2,3-dihydro-1-benzofuran-5-ylamino)carbonyl]amino}ethyl)-N-hydroxybenzamide]
19 | > 7.00 | CC(NC(=O)C1(C)CCCCC1)c1ccc(C(=O)NO)cc1 (stereo not drawn) [Compound I-132, N-hydroxy-4-(1-{[(1-methylcyclohexyl)carbonyl]amino}ethyl)benzamide]
20 | > 7.00 | CC(C)Oc1ccc(C(=O)NC(C)c2ccc(C(=O)NO)cc2)cc1 (stereo not drawn) [Compound I-38, N-(1-{4-[(hydroxyamino)carbonyl]phenyl}ethyl)-4-isopropoxybenzamide]
21 | > 7.00 | CCC[C@@H](NC(=O)C(C)(C)C)c1ccc(C(=O)NO)cc1 [Compound I-365, 4-{(1R)-1-[(2,2-dimethylpropanoyl)amino]butyl}-N-hydroxybenzamide]
